Assay results from patent US7744910B2, “Compounds and compositions for delivering active agents” (Emisphere Technologies, Inc., priority 1998, dated 2010).
Where “and” joins values, the source holds several entries; their conditions need not be identical. Equal values may be shown once. Read-outs that look alike come from different tables or passages of the source.

Legend:
[1] = Intracolonic delivery of heparin in rats; heparin activity by activated partial thromboplastin time (APTT); assay type: in vivo, Sprague-Dawley rats; settings: IC
Method: Intracolonic dosing (IC) compositions containing delivery agent compound and heparin sodium USP in 25% aqueous propylene glycol were prepared by mixing. […] Typically, compound and heparin powders were mixed, 25% aqueous propylene glycol was added, NaOH solution was added, the contents sonicated, then diluted to a volume of 3.0. pH was checked and adjusted if necessary to pH=7-8.
The dosing solutions were administered to fasted rats at a volume dose of 1 ml/kg. Blood samples were collected by cardiac puncture following the administration of ketamine (44 mg/kg). Heparin activity was determined utilizing the activated partial thromboplastin time (APTT) according to the method of Henry, J. B., Clinical Diagnosis and Management by Laboratory Methods; Philadelphia, Pa.; W. B. Saunders (1979).

[2] = PTH delivery in rats, oral (PO) and intracolonic (IC); serum PTH by radioimmunoassay; assay type: in vivo, Sprague-Dawley rats
Method: Oral gavage (PO) or intracolonic (IC) dosing solutions of delivery agent compound and parathyroid hormone residues 1-34 (PTH) (residues 1-38 for the solution with compound 103) were prepared. […] The final dosing solutions were prepared by mixing the compound solution with a PTH stock solution (typically having a concentration of 5 mg PTH/ml) and diluting to the desired volume (usually 3.0 ml).
The rats were administered one of the dosing solutions at 1 ml/kg for PO or 0.5 ml/kg for IC. Blood samples were collected serially from the tail artery for serum determination of PTH concentration. Serum PTH concentrations were quantified by a PTH radioimmunoassay kit (Kit # RIK 6101 from Peninsula Laboratories, Inc., San Carlos, Calif.).

[3] = rat, in vivo, po, 150 mg/kg
Method: (§1) Oral dosing (PO) compositions of delivery agent compound and salmon calcitonin (sCT) in water were prepared by mixing. 450 mg of compound was added to 2.0 ml of water. Either the sodium salt of the compound was used or the free acid was converted to the sodium salt by stirring the resultant solution and adding one equivalent of sodium hydroxide (1.0 N) and diluting with water. 90 μg sCT was added to the solution. Water was then added to bring the total volume to 3.0 ml. […] (For compounds 118 and 123, the solutions were diluted to 6.0 ml and the volume dose was doubled.) The total sCT concentration was 30 μg/ml.
(§2) Male Sprague-Dawley rats weighing between 200-25.0 g were fasted for 24 hours and were administered ketamine (44 mg/kg) and chlorpromazine (1.5 mg/kg) 15 minutes prior to dosing. The rats were administered 1 ml/kg of dosing solution (2 ml/kg for compounds 118 and 123). Blood samples were collected serially from the tail artery. Serum sCT was determined by testing with an EIA kit (Kit # EIAS-6003 from Peninsula Laboratories, Inc., San Carlos, Calif.). The standard protocol from the kit was modified for compounds 104 and 105 as follows: incubated with 50 μl peptide antibody for 2 hours with shaking in the dark, washed the plate, added serum and biotinylated peptide and diluted with 4 ml buffer, and shook overnight in the dark.

[4] = Oral delivery of salmon calcitonin (sCT) in rats; serum sCT by EIA; settings: compound dose 50 mg/kg, sCT dose 25 μg/kg, modified EIA protocol
Method: as §1, §2

[5] = Oral delivery of rhGH in rats; serum rhGH by immunoassay; assay type: in vivo, Sprague-Dawley rats
Method: Oral gavage (PO) dosing solutions of delivery agent compound and rhGH in phosphate buffer were prepared. […] The final dosing solutions were prepared by mixing the compound solution with an rhGH stock solution (typically having a concentration of 15 mg rhGH/ml) and diluting to the desired volume (usually 3.0 ml).
The rats were administered 1 ml/kg of the dosing solution. Blood samples were collected serially from the tail artery for determination of serum rhGH concentrations. Serum rhGH concentrations were quantified by an rhGH immunoassay test kit (Kit # KIF4015 from Genzyme Corporation Inc., Cambridge, Mass.).

[6] = compound dose 50 mg/kg, heparin dose 25 mg/kg
[7] = PO, compound dose 100 mg/kg, PTH (1-34) dose 200 μg/kg
[8] = compound dose 300 mg/kg, rhGH dose 6 mg/kg
[9] = compound dose 200 mg/kg, rhGH dose 3 mg/kg
[10] = PO, compound dose 300 mg/kg, PTH (1-34) dose 100 μg/kg

Row | SMILES | Mean Peak APTT [1, 6] | also measured
1 | O=C(O)CCCc1ccc(Nc2cc(=O)oc3ccccc23)cc1 [Compound 72] | 50 ± 18 s | –
2 | O=C(O)CCCCCCCNC(=O)c1cc(F)cc(F)c1O [Compound 41] | 41 ± 26 s | –
3 | O=C(O)CCCNC(=O)c1ccccc1 [Compound 93] | – | Mean Peak APTT ([1]; compound dose 25 mg/kg, heparin dose 50 mg/kg): 22 ± 0 s; Mean Peak Serum PTH [2, 7]: 343 ± 155 pg/mL
4 | O=C(O)CNC(=O)c1ccccc1F [Compound 113] | 20.4 s | –
5 | O=C(O)CCCCCCCCCCCNC(=O)c1ccccc1 [Compound 98] | 25 ± 5 s | –
6 | COc1ccccc1C(=O)NCC(=O)O [Compound 112] | 28.7 ± 11.5 s | –
7 | COc1ccc(C(=O)NCCCCCCCCCCCC(=O)O)c(O)c1 [Compound 109] | 24.2 ± 1.7 s | –
8 | O=C(O)CCCNC(=O)c1ccccc1F [Compound 92] | 22 ± 2 s | Mean Peak Serum PTH [2, 7]: 303 ± 427 pg/mL
9 | COc1ccc(C(=O)NCCCCCCCCCC(=O)O)c(O)c1 [Compound 108] | 72.9 ± 28.9 s | –
10 | COc1ccccc1C(=O)NCCCCCCCCCC(=O)O [Compound 94] | 50 ± 28 s | Mean Peak Serum PTH [2, 7]: 17 ± 38 pg/mL
11 | O=C(O)CCCCCCCC(=O)Nc1cc(Cl)ccc1O [Compound 122] | – | Serum sCT (pg/ml) ± SD (SE) [3]: 187 ± 79 (36) pg/ml
12 | Cc1cc(C)c(O)c(C(=O)Nc2ccc(CCCC(=O)O)cc2)c1 [Compound 14] | 54 ± 21 s | –
13 | O=C(O)CCCCCCCNC(=O)c1c(O)cccc1Cl [Compound 51] | 111 ± 49 s | –
14 | O=C(O)CCCCCCCCCCNC(=O)c1ccccc1 [Compound 87] | 21 ± 1 s and 23 ± 3 s | –
15 | COc1ccc(C(=O)NCCCCCC(=O)O)c(O)c1 [Compound 107] | 26.2 ± 6.1 s | –
16 | COc1ccc(C(=O)Nc2ccc(CCCC(=O)O)cc2)c(O)c1 [Compound 104] | – | Serum sCT (pg/ml) ± SD (SE) [4]: 287 ± 104 pg/mL; Mean Peak Serum PTH [2, 7]: 286.35 ± 191.58 pg/mL
17 | Nc1ccc(Cl)cc1C(=O)NCCCCCCCC(=O)O [Compound 40] | – | Mean Peak Serum [rhGH] [5, 8]: 42 ± 80 ng/mL
18 | O=C(O)CCCCCCCCC(=O)Nc1cc(Cl)ccc1O [Compound 123] | – | Serum sCT (pg/ml) ± SD (SE) [3]: 0 pg/mL
19 | O=C(O)CCCNC(=O)c1cc(Cl)ccc1O [Compound 105] | – | Serum sCT (pg/ml) ± SD (SE) [4]: 583 ± 140 pg/mL
20 | CNc1ccccc1C(=O)Nc1ccc(CCC(=O)O)cc1 [Compound 7] | 59 ± 41 s | –
21 | O=C(O)CCCCCCCNC(=O)c1cc(Cl)cc(F)c1O [Compound 45] | – | Mean Peak Serum [rhGH] [5, 9]: 49 ± 56 ng/mL
22 | CNc1ccccc1C(=O)Nc1ccc(CCCC(=O)O)cc1 [Compound 10] | – | Mean Peak Serum PTH [2, 10]: 420 ± 335 pg/mL; Mean Peak Serum [rhGH] [5, 9]: 43 ± 65 ng/mL
23 | Cc1ccccc1C(=O)NCCCCCCCCCC(=O)O [Compound 99] | 34 ± 7 s | –
24 | O=C(O)CCc1ccc(F)c(NC(=O)c2ccccc2O)c1 [Compound 60] | 71 ± 43 s | –

Row | SMILES | Mean Peak APTT [1, 6] | also measured
25 | COc1ccc(C(=O)NCC(=O)O)c(O)c1 [Compound 102] | 24.8 ± 0.9 s and 24.7 ± 6.5 s | –
26 | COc1ccc(C(=O)NCCCC(=O)O)c(O)c1 [Compound 106] | 48 ± 16.9 s and 27.7 ± 12.6 s | –
27 | O=C(O)CCCCCC(=O)Nc1cc(Cl)ccc1O [Compound 120] | 42 ± 34 s | –
28 | O=C(O)CCNC(=O)c1ccccc1O [Compound 103] | 21.9 ± 2.0 s | Mean Peak Serum PTH ([2]; IC, compound dose 100 mg/kg, PTH residues 1-38 dose 25 μg/kg): 38.53 ± 30.9 pg/mL
29 | O=C(O)CCCCCNC(=O)c1ccccc1F [Compound 86] | 24 ± 1 s and 31 ± 11 s | Mean Peak Serum PTH [2, 7]: 0 pg/mL
30 | COc1ccccc1C(=O)NCCCCCCCCCCCC(=O)O [Compound 96] | 72 ± 63 s | –
31 | O=C(O)CCCCCCCCCNC(=O)c1ccccc1 [Compound 100] | 31 ± 8 s | –
32 | O=C(O)CCCCCCCCCNC(=O)c1ccccc1F [Compound 85] | 27 ± 4 s | –
33 | Cc1cc(Cl)cc(C(=O)NCCCCCCCC(=O)O)c1O [Compound 55] | 125 ± 195 s | –
34 | O=C(O)CCCCCCCCCCCNC(=O)c1ccccc1F [Compound 97] | 33 ± 10 s | –
35 | O=C(O)CCCCCCCCCCNC(=O)c1ccccc1F [Compound 88] | 59 ± 47 s | –
36 | Cc1cc(F)cc(C(=O)NCCCCCCCC(=O)O)c1O [Compound 56] | 91 ± 75 s | –
37 | O=C(O)CCCC(=O)Nc1cc(Cl)ccc1O [Compound 119] | – | Serum sCT (pg/ml) ± SD (SE) [3]: 95 ± 119 (53) pg/ml
38 | O=C(O)CCCCCCCNC(=O)Cc1ccc(O)cc1 [Compound 46] | 52 ± 34 s | –
39 | O=C(O)CCCCCNC(=O)c1ccccc1 [Compound 89] | 33 ± 7 s | Mean Peak Serum PTH [2, 7]: 27 ± 61 pg/mL
40 | O=C(O)CNC(=O)c1ccccc1 [Compound 110] | 26.5 ± 4.7 s and 23.4 ± 0.7 s | –
41 | Cc1ccccc1C(=O)NCC(=O)O [Compound 111] | 24.4 ± 3.3 s | –
42 | O=C(O)CCCCCCCNC(=O)c1cc(Cl)cc(Br)c1O [Compound 48] | 75 ± 18 s | –
43 | Cc1ccccc1C(=O)NCCCCCCCCCCCC(=O)O [Compound 95] | 30 ± 2 s | –
44 | COc1ccccc1C(=O)NCCCC(=O)O [Compound 90] | 26 ± 7 s | Mean Peak Serum PTH [2, 7]: 14 ± 21 pg/mL
45 | Nc1ccc(F)cc1C(=O)Nc1ccc(CCCC(=O)O)cc1 [Compound 3] | – | Mean Peak Serum PTH [2, 10]: 222 ± 155 pg/mL; Mean Peak Serum [rhGH] [5, 8]: 72 ± 45 ng/mL
46 | Cc1ccccc1C(=O)NCCCCCC(=O)O [Compound 101] | 26 ± 5 s | –
47 | O=C(O)CCCCCCCNC(=O)c1cc(F)ccc1O [Compound 54] | 124 ± 137 s | Mean Peak Serum [rhGH] [5, 9]: 48 ± 33 ng/mL
48 | Cc1ccccc1C(=O)NCCCC(=O)O [Compound 91] | 24 ± 4 s | Mean Peak Serum PTH [2, 7]: 5 ± 12 pg/mL
